Assay results published in article PMC6792352, “Limited Chemical Structural Diversity Found to Modulate Thyroid Hormone Receptor in the Tox21 Chemical Library” (Environmental Health Perspectives, 2019).
Structures can show the parent of a compound that is named as a salt.

Experiment: in vitro
Conditions: rat, gh3-tre-luc cells, AC50 (uM) modified / 1000

Row | Structure (SMILES) | CC50 at 24 h [µM]
1 | Oc1ccc(Cl)cc1Cl [2,4-Dichlorophenol] | > 90
2 | CCOC(=O)c1ccccc1 [Ethyl benzoate] | > 90
3 | O=C(COc1ccc(Cl)cc1)OCCNC12CC3CC(CC(C3)C1)C2 [Adafenoxate] | > 50
4 | CC(=O)O[C@@H]1C[C@@H]2CC[C@@]1(C)C2(C)C [Bornyl acetate] | > 90
5 | Cc1cc(O)no1 [Hymexazol] | > 100
6 | COCCOCCO [Diethylene glycol monomethyl ether] | > 90
7 | O=S(=O)(O)c1ccc(Nc2nc(Nc3ccc(/C=C/c4ccc(Nc5nc(Nc6ccc(S(=O)(=O)O)cc6)nc(N(CCO)CCO)n5)cc4S(=O)(=O)O)c(S(=O)(=O)O)c3)nc(N(CCO)CCO)n2)cc1 [C.I. Fluorescent Brightener 220] | > 60
8 | CC(=O)Oc1ccc(C(=C2CCCCC2)c2ccc(OC(C)=O)cc2)cc1 [Cyclofenil] | > 50
9 | CCCCCCCCCCC(=O)O [Undecanoic acid] | > 90
10 | CCN1CCN(c2cc3c(cc2F)c(=O)c(C(=O)O)cn3C2CC2)CC1 [Enrofloxacin] | > 50
11 | C=C(C)OC(C)=O [Isopropenyl acetate] | > 90
12 | O=P(O)(O)C(O)(Cn1ccnc1)P(=O)(O)O [Zoledronate] | > 50
13 | CCCCC[Si](OCC)(OCC)OCC [Triethoxypentylsilane] | > 90
14 | CCOC(=O)C1=C(C)NC(C)=C(C(=O)OC)C1c1cccc(Cl)c1Cl (stereo not shown) [Felodipine] | 13.5
15 | C=C(C)C(=O)OCCCCCCOC(=O)C(=C)C [1,6-Hexanediol dimethacrylate] | > 90
16 | Clc1ccccc1 [Chlorobenzene] | > 90
17 | Clc1ccc(C(OCCN2CCCCC2)c2ccccc2)cc1 (stereo not shown) [Cloperastine hydrochloride] | 9.53
18 | CCCCCCCCOC(=O)c1ccccc1C(=O)OCCCCCCCC [Di-n-octyl phthalate] | > 90
19 | CCOC(=O)c1ccc(NC(=O)CN2CCCCC2)cc1 [Sulcaine] | > 50
20 | OCC1CC=CCC1 (stereo not shown) [Cyclohex-3-en-1-ylmethanol] | > 90

Row | Structure (SMILES) | CC50 at 24 h [µM]
21 | Cc1nc2ccccc2n1Cc1ccc(Cl)cc1 [Chlormidazole] | > 50
22 | CO[C@H]1C[C@H](O[C@H]2[C@H](C)O[C@@H](O[C@@H]3/C(C)=C/C[C@@H]4C[C@@H](C[C@]5(C=C[C@H](C)[C@@H](C6CCCCC6)O5)O4)OC(=O)[C@@H]4C=C(C)[C@@H](O)[C@H]5OC/C(=C\C=C\[C@@H]3C)[C@]54O)C[C@@H]2OC)O[C@@H](C)[C@@H]1O [Doramectin] | 2.94
23 | Clc1ccnc(Cl)n1 [2,4-Dichloropyrimidine] | > 90
24 | C=C[Si](OC(C)=O)(OC(C)=O)OC(C)=O [Ethenylsilanetriyl triacetate] | > 90
25 | CCC(=O)O[C@@H]1C[C@H]2CC[C@]1(C)C2(C)C (racemic) [Isobornyl propanoate] | > 90
26 | CCCCCCCCCCCCCCCCN(C)C [Dimethylcetylamine] | > 5
27 | [O-][n+]1ccc(Cl)cc1 [4-Chloropyridine 1-oxide] | > 100
28 | CCC(=O)/C=C/C1C(C)=CCCC1(C)C (stereo not shown) [Methylionone] | > 90
29 | O=C(Nc1ccc([N+](=O)[O-])cc1)Nc1ccc([N+](=O)[O-])cc1 [4,4'-Dinitrodiphenylurea] | > 50
30 | O=C(O)C1CCC(C(=O)O)CC1 (stereo not shown) [1,4-Cyclohexanedicarboxylic acid] | > 90
31 | Nc1cc(C(=O)O)c(O)c(S(=O)(=O)O)c1 [5-Amino-3-sulfosalicylic acid] | > 90
32 | CCCCCc1ccc(Cl)cc1 | > 90
33 | COC(=O)NS(=O)(=O)c1ccc(N)cc1 [Asulam] | > 90
34 | CN1CCN(CC(=O)N2c3ccccc3C(=O)Nc3cccnc32)CC1 [Pirenzepine] | > 50
35 | CC(C)=CCOc1ccc(/C=C/C(=O)c2ccc(OCC=C(C)C)cc2OCC(=O)O)cc1 [Sofalcone] | 43
36 | CN(C(=O)c1c(O)c2ccccc2n(C)c1=O)c1ccccc1 [Roquinimex] | > 50
37 | C[C@H]1NCc2cc(-c3ccc4c(=O)c(C(=O)O)cn(C5CC5)c4c3OC(F)F)ccc21 [Garenoxacin mesylate hydrate] | > 50
38 | Cc1ccccc1OCC(=O)O [(2-Methylphenoxy)acetic acid] | > 90
39 | Cc1ncc(CO)c(CN)c1O [Pyridoxamine dihydrochloride] | > 50
40 | CC1(C)[C@H](C(=O)O[C@H](C#N)c2cccc(Oc3ccccc3)c2)[C@@H]1C=C(Br)Br [Deltamethrin] | > 100

Row | Structure (SMILES) | CC50 at 24 h [µM]
41 | CCOc1ccc(Cc2nccc3cc(OCC)c(OCC)cc23)cc1OCC [Ethaverine hydrochloride] | > 20
42 | C=C1C[C@@]23CC[C@H]4[C@@](C)(CCC[C@@]4(C)C(=O)O[C@@H]4O[C@H](CO)[C@@H](O)[C@H](O)[C@H]4O)[C@@H]2CC[C@]1(O[C@@H]1O[C@H](CO)[C@@H](O)[C@H](O)[C@H]1O[C@@H]1O[C@H](CO)[C@@H](O)[C@H](O[C@@H]2O[C@H](CO)[C@@H](O)[C@H](O)[C@H]2O)[C@H]1O)C3 [Rebaudioside A] | > 90
43 | Fc1ccccc1-c1ccccc1 [2-Fluorobiphenyl] | > 90
44 | NS(=O)(=O)c1cc2c(cc1C(F)(F)F)NC(Cc1ccccc1)NS2(=O)=O (stereo not shown) [Bendroflumethiazide] | > 20
45 | CC(C)(C)C(=O)OCOP(=O)(COCCn1cnc2c(N)ncnc21)OCOC(=O)C(C)(C)C [Adefovir dipivoxil] | > 50
46 | C=CCOC(C)=O [Allyl acetate] | > 90
47 | CN1CC(=O)N2[C@H](c3ccc4c(c3)OCO4)c3[nH]c4ccccc4c3C[C@@H]2C1=O [Tadalafil] | > 50
48 | CC(CN(C)C)CN1c2ccccc2S(=O)(=O)c2ccccc21 (stereo not shown) [Oxomemazine hydrochloride] | 37.7
49 | Cc1cccc(C)c1 [m-Xylene] | > 90
50 | CN1CCN(C(c2ccccc2)c2ccc(Cl)cc2)CC1 (stereo not shown) [Chlorcyclizine hydrochloride] | 4.39
51 | CC(C)N1C(=O)c2ccccc2NS1(=O)=O [Bentazone] | > 90
52 | CCn1cc[n+](C)c1 [1-Ethyl-3-methylimidazolium thiocyanate] | > 90
53 | Nc1c(CC(=O)O)cccc1C(=O)c1ccc(Br)cc1 [Bromfenac sodium sesquihydrate] | > 50
54 | Cc1cccc(OCCOc2cccc(C)c2)c1 [1,1'-[Ethane-1,2-diylbis(oxy)]bis(3-methylbenzene)] | > 100
55 | O=NN1CCCCCCC1 [Nitrosoheptamethyleneimine] | > 90
56 | CC(=O)OCC(=O)[C@@]1(O)[C@H](C)C[C@H]2[C@@H]3C[C@H](F)C4=CC(=O)C=C[C@]4(C)[C@H]3[C@@H](O)C[C@@]21C [Paramethasone acetate] | > 50
57 | O=P(O)(O)C(O)(Cc1cccnc1)P(=O)(O)O [Risedronate sodium] | > 50
58 | CC(=O)CC(c1ccccc1)c1c(O)c2ccccc2oc1=O (stereo not shown) [Warfarin] | > 90
59 | CC(C)(C)c1ccc(N)cc1 [4-tert-Butylaniline] | > 90
60 | CCCCCOC(=O)c1ccc(O)cc1 [Pentylparaben] | 67.4

Same assay, conditions: rat, gh3-tre-luc cells, AC50 (uM) modified / 1000, Tox21_110001=Tox21_110988; viability, 1 nM T3 present, 24 h

Row | Structure (SMILES) | CC50 at 24 h [µM]
61 | COC(=O)c1cncn1C(C)c1ccccc1 (stereo not shown) [Metomidate hydrochloride] | > 50

Same assay, conditions: rat, gh3-tre-luc cells, AC50 (uM) modified / 1000, Tox21_110001=Tox21_111751; viability, 1 nM T3 present, 24 h

Row | Structure (SMILES) | CC50 at 24 h [µM]
62 | COC1=CC=C2[C@H]3Cc4ccc(OC)c5c4[C@@]2(CCN3C)[C@H]1O5 [Thebaine] | > 20

Same assay, conditions: rat, gh3-tre-luc cells, AC50 (uM) modified / 1000, Tox21_110001=Tox21_112614; viability, 1 nM T3 present, 24 h

Row | Structure (SMILES) | CC50 at 24 h [µM]
63 | C=CCN1CC[C@]23c4c5ccc(O)c4O[C@H]2[C@@H](O)C=C[C@H]3[C@H]1C5 [Nalorphine hydrochloride] | > 50

Same assay, conditions: rat, gh3-tre-luc cells, AC50 (uM) modified / 1000, Tox21_110001=Tox21_112754; viability, 1 nM T3 present, 24 h

Row | Structure (SMILES) | CC50 at 24 h [µM]
64 | CCC/C=C/C=C/C(=O)O[C@H]1/C(=C/C(=O)OC)C[C@H]2C[C@H]([C@@H](C)O)OC(=O)C[C@H](O)C[C@@H]3C[C@H](OC(C)=O)C(C)(C)[C@](O)(C[C@@H]4C/C(=C/C(=O)OC)C[C@H](/C=C/C(C)(C)[C@]1(O)O2)O4)O3 [Bryostatin 1] | 9.94

Same assay, conditions: rat, gh3-tre-luc cells, AC50 (uM) modified / 1000, Tox21_110001=Tox21_112772; viability, 1 nM T3 present, 24 h

Row | Structure (SMILES) | CC50 at 24 h [µM]
65 | C[C@]12Cc3nonc3C[C@@H]1CC[C@@H]1[C@@H]2CC[C@@]2(C)[C@H]1CC[C@]2(C)O [Furazabol] | 25.2

Same assay, conditions: rat, gh3-tre-luc cells, AC50 (uM) modified / 1000, Tox21_110001=Tox21_112863; viability, 1 nM T3 present, 24 h

Row | Structure (SMILES) | CC50 at 24 h [µM]
66 | COC1=CC=C2[C@H]3Cc4ccc(OC)c5c4[C@@]2(CCN3C)[C@H]1O5 [Thebaine] | > 90

Same assay, conditions: rat, gh3-tre-luc cells, AC50 (uM) modified / 1000, Tox21_110001=Tox21_200022; viability, 1 nM T3 present, 24 h

Row | Structure (SMILES) | CC50 at 24 h [µM]
67 | O=[N+]([O-])c1cccc(O)c1 [3-Nitrophenol] | > 90

Same assay, conditions: rat, gh3-tre-luc cells, AC50 (uM) modified / 1000, Tox21_110001=Tox21_201178; viability, 1 nM T3 present, 24 h

Row | Structure (SMILES) | CC50 at 24 h [µM]
68 | CC(Cl)(Cl)[N+](=O)[O-] [1,1-Dichloro-1-nitroethane] | > 90

Same assay, conditions: rat, gh3-tre-luc cells, AC50 (uM) modified / 1000, Tox21_110001=Tox21_202325; viability, 1 nM T3 present, 24 h

Row | Structure (SMILES) | CC50 at 24 h [µM]
69 | N#CSCSC#N [Methylene bis(thiocyanate)] | 3.41

Same assay, conditions: rat, gh3-tre-luc cells, AC50 (uM) modified / 1000, Tox21_110001=Tox21_301058; viability, 1 nM T3 present, 24 h

Row | Structure (SMILES) | CC50 at 24 h [µM]
70 | N#CSCSC#N [Methylene bis(thiocyanate)] | 5.63

Same assay, conditions: rat, gh3-tre-luc cells, AC50 (uM) modified / 1000, Tox21_110001=Tox21_302136; viability, 1 nM T3 present, 24 h

Row | Structure (SMILES) | CC50 at 24 h [µM]
71 | COc1cccc(C=O)c1 [3-Methoxybenzaldehyde] | > 90

Same assay, conditions: rat, gh3-tre-luc cells, AC50 (uM) modified / 1000, Tox21_110001=Tox21_302216; viability, 1 nM T3 present, 24 h

Row | Structure (SMILES) | CC50 at 24 h [µM]
72 | CCOC(=O)COc1ccc(Cl)cc1Cl [2,4-D-ethyl ester] | > 90

Same assay, conditions: rat, gh3-tre-luc cells, AC50 (uM) modified / 1000, Tox21_110001=Tox21_400075; viability, 1 nM T3 present, 24 h

Row | Structure (SMILES) | CC50 at 24 h [µM]
73 | COc1ccc(C(c2ccc(OC)cc2)C(Cl)(Cl)Cl)cc1 [Methoxychlor] | 76.1
